From patent US8193172B2, “Methods for the treatment of major depressive disorder using glucocorticoid receptor antagonists” (Pop Test Cortisol LLC, priority 2001, dated 2012)
Read-outs that look alike come from different tables or passages of the source.

Assays:
[1] = system: Major Depressive Disorder patients; test: Double blind, 4 week, paroxetine controlled study of Org 34517 in depressed patients (HAMD-21, afternoon cortisol test); assay type: in vivo; settings: daily dose 150-300 mg, oral, FIG. 1
Description: A double blind, 4 week, paroxetine controlled study of Org 34517 in depressed patients was carried out. Paroxetine is a selective serotonin re-uptake inhibitor which is recognized as an effective antidepressant for major depression.
Patients were randomly allocated to one of three treatment groups. Group I patients (50 patients) received 2 capsules with 75 mg of Org 34517 and one placebo (total daily dose 150 mg) for the first 2 weeks and 2 capsules with 75 mg Org 34517 and 1 capsule with 150 mg (total daily dose 300 mg) the next 2 weeks; Group II patients (46 patients) received 3 capsules with 150 mg Org 34517 (total daily dose 450 mg) in the first 2 weeks and 4 capsules of Org 34517 (total daily dose 600 mg) in the next 2 weeks; Group III patients (44 patients) received 2 capsules with 10 mg paroxetine and one placebo capsule (total daily dose 20 mg) for the first 2 weeks, followed by 2 capsules of 10 mg and one capsule of 20 mg paroxetine (total daily dose 40 mg) in the next 2 weeks. Medication was administered orally in the morning. Efficacy assessment was done on days 4, 7, 10, 14, 21, 28 and 35 by using the 21-item HAMD scale.
The cortisol levels were determined using the afternoon cortisol test (ACT) as described by Halbreich et al. [J. Clin. Endocrinol. Metab. (1982) 54 (6), 1262].

[2] = system: psychosis associated with psychotic major depression; settings: mifepristone 8-12 mg/kg/day over 4 days; cited from earlier work
[3] = system: psychosis associated with psychotic major depression; settings: cited from earlier work

Structure (SMILES)	p of correlation between HAMD-21 change and cortisol (ACT) change ([1]; HAMD-21 change scored at day 14, cortisol change at 28 days)	clinical improvement (HAMD decrease) in relation to cortisol change [1]	effect in the treatment of psychosis associated with psychotic major depression [2]	change in Brief Psychiatric Rating Scale ([3]; daily dose 50 mg)	change in Brief Psychiatric Rating Scale ([3]; daily dose 600 mg)	change in Brief Psychiatric Rating Scale ([3]; daily dose 1200 mg)
CC#C[C@]1(O)CC[C@H]2[C@@H]3CCC4=CC(=O)CCC4=C3[C@@H](c3ccc4c(c3)OCO4)C[C@@]21C [Org 34517, (11β,17β)-11-(1,3-benzodioxol-5-yl)-17-hydroxy-17-(1-propynyl)estra-4,9-dien-3-one]	0.02	most prominent clinical improvement (HAMD decrease) is seen in patients were cortisol is not increased				
CC#C[C@]1(O)CC[C@H]2[C@@H]3CCC4=CC(=O)CCC4=C3[C@@H](c3ccc(N(C)C)cc3)C[C@@]21C [mifepristone, 17β-hydroxy-11β-(4-dimethylaminophenyl)-17α-(1-propynyl)estra-4,9-dien-3-one]			effective	33%	40%	52%
